Several values for one entry are separate records, joined by “and”; a condition that tells them apart may be missing. Identical values can stand only once.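 Results reflect a 48-hour exposure of cells in 96-well plates to compound at five concentrations. GI50 marks 50% less growth. TGI: concentration producing complete growth inhibition.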
How the values were obtained:
Assay in all cases: growth of human tumour cells (NCI), 48 h
CAKI-1 renal = system: CAKI-1 renal
LOX IMVI melanoma = system: LOX IMVI melanoma
M14 melanoma = system: M14 melanoma
OVCAR-5 ovarian = system: OVCAR-5 ovarian
SF-539 CNS = system: SF-539 CNS
SK-MEL-2 melanoma = system: SK-MEL-2 melanoma
SNB-19 CNS = system: SNB-19 CNS

| Compound | GI50 (CAKI-1 renal) [µM] | TGI (CAKI-1 renal) [µM] | GI50 (LOX IMVI melanoma) [µM] | TGI (LOX IMVI melanoma) | GI50 (M14 melanoma) | TGI (M14 melanoma) | GI50 (OVCAR-5 ovarian) | GI50 (SF-539 CNS) [µM] | TGI (SF-539 CNS) | GI50 (SK-MEL-2 melanoma) [µM] | GI50 (SNB-19 CNS) [µM] | TGI (SNB-19 CNS) | TGI (OVCAR-5 ovarian) | TGI (SK-MEL-2 melanoma) [µM] |
| --- | --- | --- | --- | --- | --- | --- | --- | --- | --- | --- | --- | --- | --- | --- |
| COc1ccc2c(c1)C(=O)c1c-2n(CCCn2ccnc2)c(=O)c2cc([N+](=O)[O-])ccc12 | < 0.01 | 0.366 | < 0.01 | 0.0351 µM | < 0.01 µM | < 0.01 µM | < 0.0156 µM | < 0.01 | 0.0101 µM | 0.245 | < 0.01 | > 100 µM | – | – |
| O=S(=O)(NC1=NCCN1C(=S)SN1CCn2c1nsc2=S)c1cccc(Cl)c1 | 6.24 | 23.5 | 10.7 | 22.9 µM | 15.8 µM | 33.2 µM | 19.7 µM | 19.4 | 34.2 µM | 26 | 19.1 | 44.4 µM | 39.2 µM | 98.9 |
| COC(=O)Nc1nc2ccc(Oc3ccc(NC(=O)Nc4cc(C(F)(F)F)ccc4F)cc3)cc2s1 | > 25 | > 25 | 3.65 | > 25 µM | 2.83 µM | > 25 µM | > 25 µM | > 25 | > 25 µM | > 5.02 | > 25 | > 25 µM | > 25 µM | > 25 |
| O=C1c2cccc([N+](=O)[O-])c2C(=O)N1c1ncn[nH]1 | – | > 100 | – | > 100 µM | – | > 100 µM | – | – | 36.8 µM | – | – | > 100 µM | > 100 µM | > 100 |
| CCCCCCCCn1ccc2cc(NC(=O)Cn3cc(CN4CCCC4)nn3)ccc21 | 1.76 | 3.28 | 1.62 | 3.01 µM | 1.79 µM | 3.35 µM | 1.78 µM | 1.73 | 3.19 µM | 1.86 | 1.73 | 3.34 µM | 4 µM | 3.66 |
| C=C(C[C@](O)(C(=O)/C=C/c1ccc(Cl)cc1)C(=O)OC)c1ccccc1 | 7 | 20.7 | 0.719 | 2.24 µM | 2.98 µM | 11.3 µM | 3.48 µM | 2.12 | 4.93 µM | 13.3 | 3.69 | 12.8 µM | 13.1 µM | 27.1 |
| Cc1ccc(C(=O)NC(C)C)cc1-c1ccc(C(=O)NCC2CC2)cc1 | > 25 | > 25 | > 25 | > 25 µM | > 25 µM | > 25 µM | > 25 µM | > 25 | > 25 µM | > 25 | > 25 | > 25 µM | > 25 µM | > 25 |
| O=C(CC1C(=O)NN(c2ccc(Br)cc2)C1=O)c1cc(O)ccc1O (stereo not given) | 14.4 | 35.7 | 8.3 | 19.5 µM | 31.2 µM | > 50 µM | 34.7 µM | 11.3 | 27.3 µM | 36.5 | 22.7 | > 50 µM | > 50 µM | > 50 |
| COc1ccc(-c2nc(-c3nc4ccc(Cl)cc4[nH]3)c3ccccn23)cc1 | 2.09 | 5.03 | 2.85 | 6.66 µM | 4.24 µM | 18.4 µM | 7.32 µM | 1.76 | 3.61 µM | 2.71 | 3.6 | 20.7 µM | 29.3 µM | 8.76 |
| NC(=O)NS(=O)(=O)c1ccc(N2N=C(C(F)(F)F)CC2c2cc(C(F)(F)F)cc(C(F)(F)F)c2)cc1 (stereo not given) | 5 | 19.5 | 5.76 | 19.1 µM | 4.96 µM | 21.1 µM | 13.7 µM | 11.9 | 24.7 µM | 1.2 | 8.03 | 22.4 µM | 29.8 µM | 9.5 |
| O=C(Nc1ccncc1)C(=O)c1cn(S(=O)(=O)c2cccc(F)c2)c2ccccc12 | 3.16 | > 100 | 3.51 | > 100 µM | – | – | > 100 µM | 4.41 | > 100 µM | 10.3 | 49.2 | > 100 µM | > 100 µM | > 100 |
| COc1ccc2c(c1)CCCN2c1c2ccccc2nc2ccccc12 | 0.383 | > 100 | 0.505 | 12.1 µM | – | – | 0.544 µM | 0.251 | 0.741 µM | 0.813 | 0.546 | > 100 µM | > 100 µM | > 100 |
| Nc1nc2c(nnn2C2CC(O)C(CO)O2)c(=O)[nH]1 (stereo not given) | 2.3 | > 100 | 0.92 | > 83.2 µM | 4.47 µM | > 92.1 µM | 26.2 µM | 3.12 | > 41 µM | 20.2 | 34.1 | > 100 µM | > 100 µM | > 100 |
| O=C1C(Cl)=C(NCCN2CCOCC2)C(=O)c2ncccc21 | 1.92 | 3.72 | 0.905 | 3.44 µM and 2.55 µM | – | 3.17 µM and 3.25 µM | – | – | 3.33 µM | 2.16 | 1.99 | 3.15 µM and 4.01 µM | 3.59 µM and 3.56 µM | 4.37 |
| CC[C@@]1(c2ccccc2)C2=C(CC(C)(C)CC2=O)Nc2[nH]ncc21 | 51.9 | > 100 | > 100 | > 100 µM | > 100 µM | > 100 µM | > 100 µM | > 100 | > 100 µM | > 100 | > 100 | > 100 µM | > 100 µM | > 100 |
| CCCCCCCC(=O)OCC/C=C/C1OC1C1OC(=O)/C=C\C=C\c2nc(oc2C)/C=C(/C)CCC2OC2C1OC(=O)NC(C)=O (stereo not given) | 0.0664 | 1.56 | 0.0372 | 0.648 µM | – | – | 0.0193 µM | 0.0396 | 0.0819 µM | 0.0222 | 0.0605 | 1.16 µM | 0.104 µM | 0.0647 |
| Cn1c2ccccc2c2ccc3c(c21)C(=O)c1ccccc1C3=O | – | 67 | – | 29.4 µM | – | 83 µM | – | – | 41.2 µM | – | – | > 100 µM | > 100 µM | – |
| CC(=O)O[C@H]1C(=O)[C@@]2(C)C(C(OC(=O)c3ccccc3)[C@]3(O)CC(OC(=O)[C@H](OC(=O)CCC(=O)O)C(NC(=O)c4ccccc4)c4ccccc4)C(C)=C1C3(C)C)C1(OC(C)=O)COC1C[C@@H]2O (stereo not given in full) | – | > 100 | – | > 100 µM | < 0.0111 µM and 0.0224 µM | 41.2 µM and > 100 µM | < 0.0146 µM and 0.0324 µM | – | < 0.0196 µM and 0.0584 µM | – | – | > 100 µM | > 36.1 µM | – |

— PubChem BioAssay (NCI)
